This passage reports IC50 results from patent US6936634B2, “Ruthenium (II) compounds for use in the therapy of cancer” (The University Court, The University of Edinburgh (UK), priority 2000, dated 2005).

Where two headings read alike, the source gives them in different places.

Holding throughout (type): cell-based
Assay [1] concerns A2780 AD, variant of A2780 showing resistance to adriomycin. Put plainly: Cell growth inhibition, A2780 AD (adriomycin resistant variant). The note with it: multidrug resistant, over expresses p glycoprotein, 24 hours exposure. How it is done: (§1) The compounds are tested on 24 -well trays. Cells growing in a flask are harvested just before they become confluent, counted using a haemocytometer and diluted down with media to a concentration of 1×10^4 cells per ml. The cells are then seeded in the 24 -well trays at a density of […] (i.e. 1 ml of the diluted cell suspension is added to each well). The cells are then left to plate down and grow for 72 hours before adding the compounds of the invention.
(§2) The Ru complexes are weighed out and made up to a concentration of is 1 mg/ml with deionised water then sonicated, until they go into solution. The appropriate volume of the Ru solution is added to 5 ml of media to make it up to a concentration of 100 μM for each drug. This 100 μM solution is then serially diluted to make up the 10 μM, 1 μM and 0.1 μM solutions.
(§3) The media is removed from the cells and replaced with 1 ml of the media dosed with drug. Each concentration is done in duplicate. A set of control wells are left on each plate, containing media without drug.
(§4) The cells are left exposed to the drugs for 24 hours and then washed with phosphate buffered saline before fresh media is added.
(§5) They are allowed to grow on for a further 3 days before being counted using a Coulter counter.
(§6) • Media is removed and 1 ml of PBS is added to the cells. • 250 μl of trypsin is added and cells left in incubator for a few minutes to allow the monolayers to detach. • Once trypsinised, 250 μl of media is added to each well to neutralise the trypsin. 200 μl of this suspension is added to 10 ml of NaCl for counting. 2. Results
(§7) The experiments were repeated to investigate the effect of the compounds of the invention on drag-resistant variants of the A2780 cell line.

Assay [2] has as its system A2780 ovarian cancer cell line. Put plainly: Cell growth inhibition, A2780 ovarian cancer cell line. How it is done:
as §1, §2, §3, §4, §5, §6
Using the above protocol, a number of compounds of the invention were tested on A2780 ovarian cancer cell line.

In assay [3] the test system is A2780 cis, variant of A2780 showing resistance to cis-platin. Put plainly: Cell growth inhibition, A2780 cis (cis-platin resistant variant). The note with it: 24 hours exposure. How it is done:
as §1, §2, §3, §4, §5, §6, §7

Setting [4] is: A2780, repeated experiments with drug-resistant variants, 24 hours exposure, read-out: IC50 A2780.
Setting [5] is: A2780 ovarian cancer cell line, 24 hours drug exposure, counted after a further 3 days, first experiment, read-out: IC50.

As a reminder, the IC50 is the concentration at which inhibition is half-maximal. Regarding `CC#N.CC#N.F[P-](F)(F)(F)(F)F.[Cl][Ru+].c1ccc2c(c1)Cc1ccccc1C2` [Example 6, [(η^6-C14H12)RuCl(CH3CN)2]^+PF6^−], the half-inhibitory concentration (IC50) in assay [1] is 0.9 µM; in assay [2] (setting [4]) it was 192 µM; in assay [2] (setting [5]) it was 315 µM; in assay [3], 2 µM.
Regarding `C1=CCC2=C(C1)Cc1ccccc1C2.CC#N.CC#N.F[P-](F)(F)(F)(F)F.[Cl][Ru+]` [Example 3, [(η^6-C14H14)RuCl(CH3CN)2]^+PF6^−], the half-maximal inhibitory concentration (IC50) in assay [1] turned out to be 2 µM; in assay [2] (setting [4]), 116 µM; in assay [2] (setting [5]), 177 µM; in assay [3], 2 µM.
Take `C1=CCC2=C(C1)Cc1ccccc1C2.F[P-](F)(F)(F)(F)F.NCCN.[Cl][Ru+]` [Example 1, [(η^6-C14H14)RuCl(en)]^+PF6]: the IC50 in assay [1] stood at 328 µM; in assay [2] (setting [4]) it was 0.5 µM; in assay [2] (setting [5]), 0.5 µM; in assay [3] it was 1 µM.
In the case of `C1=CCC2=C(C1)Cc1ccccc1C2.[Cl][Ru][Cl]` [Example 2, [(η^6-C14H14)RuCl2(DMSO)]], the IC50 stood at 4 µM in assay [1], 94 µM in assay [2] (setting [4]), 94 µM in assay [2] (setting [5]) and 493 µM in assay [3].
As to `F[P-](F)(F)(F)(F)F.NCCN.[Cl][Ru+].c1ccc2c(c1)Cc1ccccc1C2` [Example 4, [η^6-C14H12)RuCl(en)]^+PF6−], the IC50 in assay [1] was 104 µM; in assay [2] (setting [4]), 2 µM; in assay [2] (setting [5]) it was 0.3 µM; in assay [3], 16 µM.
On to “{[(η^6-C14H14)RuCl]2[H2N(CH2)2NH(CH2)6NH(CH2)2NH2−N,N′N″,N′″]}^2+.2PF6^− [Example 7]”, for which the concentration for half-maximal inhibition (IC50) in assay [2] (setting [5]) came out at 6 µM.
As to `[Cl][Ru][Cl].c1ccc2c(c1)Cc1ccccc1C2` [Example 5, [(η^6-C14H12)RuCl2(DMSO)]], the 50% inhibitory concentration (IC50) in assay [1] is 5 µM; in assay [2] (setting [4]) it was 126 µM; in assay [2] (setting [5]), 68 µM; in assay [3], 2 µM.
